This is an account of results in publication PMC8268887, “Peptide/β-Peptoid Hybrids with Ultrashort PEG-Like Moieties: Effects on Hydrophobicity, Antibacterial Activity and Hemolytic Properties” (International Journal of Molecular Sciences, 2021).

Each structure is given as a SMILES string. Converted amounts (≈) assume the structure as drawn.

A short description of series [1]: Antiproliferative activity on HepG2 cell line (MTT assay). It counts as cell-based. Particulars: HepG2 cells; at 1280 µg/mL, value in parenthesis; read-out: HepG2 cell viability at highest concentration tested. The procedure: (§1) Effect of compounds on mammalian cell viability was estimated on the HepG2 cell line ATCC HB-8065. In brief, HepG2 cells were seeded into flat-bottomed 96-well plates at a concentration of 5000 cells per well. Subsequently, the cells were incubated for 24 h in a humidified incubator (5% CO2, 37 °C). Then, the medium was removed, and the cells were incubated for 48 h in a humidified incubator (5% CO2, 37 °C) with peptidomimetics in serial dilutions. Then, an 3-(4,5-dimethylthiazol-2-yl)-2,5-diphenyltetrazolium bromide (MTT) assay was performed as previously described. In brief, after incubation with the test compounds, the culture medium was removed, and then fresh medium with 0.2 mg/mL MTT was added into each well of the plate. The cells were then incubated (3 h, 37 °C, 5% CO2), followed by removal of the medium with MTT and addition of 200 μL dimethyl sulfoxide at once to each sample. Absorbance of MTT was measured using the spectrophotometer TECAN Infinite M1000 at 540 nm. The relative viability was calculated by using the formula: ODtreated cells × 100/ODcontrol cells. The IC50 values are calculated by using the program Graph Pad Prism® 5.0. For all compounds, the test range was 10–1280 μg/mL.
In general terms: Formazan colour is commonly taken as a measure of viable cells.

In series [2] the test system is HepG2 cell line ATCC HB-8065. Described as above. Particulars: inhibition of growth of HepG2 cells, 48 h, MTT; highest concentration tested 1280 µg/mL. The series is classed as cell-based. As to the method:
as §1

Series [3] can be described thus: Determination of hemolytic activity. The series is classed as cell-based. Particulars: red blood cell suspension in PBS buffer, human red blood cells at 400 µg/mL, 37 °C. An outline of the steps: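 Fresh human RBCs, PBS-washed, used as 1% suspension with compound at 400 μg/mL final for 60 min at 37 °C with mild agitation, triplicate wells. Released hemoglobin read at OD 405 nm in supernatant; % hemolysis normalized to 1% SDS (100%) and PBS (0%), averages reported.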

In a further series the test system is A. baumannii ATCC 19606. The series is classed as cell-based, Acinetobacter baumannii. The note with it: ATCC 19606, 20 h. In short, it runs like this:
(§2)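 Broth microdilution in Mueller-Hinton broth with Mg2+ and Ca2+ at 4 mg/L each, inoculum ~5 × 10^5 CFU/mL. Compounds diluted in 0.01% acetic acid, 0.2% BSA (final) using low-binding plastics; MIC read after 20 h at 35 °C (±2 °C) with shaking at 180 rpm.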

The next series has as its system A. baumannii NMI 3658/17. It counts as cell-based, Acinetobacter baumannii. Particulars: NMI 3658/17, 20 h. An outline of the steps:
as §2

Regarding `NCCCC[C@H](NC(=O)CCN(Cc1ccc(F)cc1)C(=O)[C@H](CCCCN)NC(=O)COCCNC(=O)CCN(Cc1ccc(F)cc1)C(=O)[C@H](CCCCN)NC(=O)CCN(Cc1ccc(F)cc1)C(=O)[C@H](CCCCN)NC(=O)COCCNC(=O)CCN(Cc1ccc(F)cc1)C(=O)[C@H](CCCCN)NC(=O)CCN(Cc1ccc(F)cc1)C(=O)[C@@H](N)CCCCN)C(=O)N(CCC(N)=O)Cc1ccc(F)cc1` [Compound 15, H-[X]2-sPEG1-[X]2-sPEG1-[X]2-NH2], the viability at 48 h in series [1] is 26%. The “HepG2 IC50” value in series [2] was found to be 568 µg/mL. This compound returned a hemolysis at 60 min in series [3] of 4.8%. Also, the “MIC, AB” value against A. baumannii ATCC 19606 was 8 µg/mL (≈ 3.88 µM). Also, the “MIC, A. baumannii NMI 3658/17” value in the series with A. baumannii NMI 3658/17 is reported as 4 µg/mL (≈ 1.94 µM).
The corresponding values for `NCCCC[C@H](NC(=O)CCN(Cc1ccc(F)cc1)C(=O)[C@H](CCCCN)NC(=O)COCCOCCNC(=O)CCN(Cc1ccc(F)cc1)C(=O)[C@H](CCCCN)NC(=O)CCN(Cc1ccc(F)cc1)C(=O)[C@H](CCCCN)NC(=O)COCCOCCNC(=O)CCN(Cc1ccc(F)cc1)C(=O)[C@H](CCCCN)NC(=O)CCN(Cc1ccc(F)cc1)C(=O)[C@@H](N)CCCCN)C(=O)N(CCC(N)=O)Cc1ccc(F)cc1` [Compound 16, H-[X]2-sPEG2-[X]2-sPEG2-[X]2-NH2] are 27%, 687 µg/mL, 5.7%, 8 µg/mL (≈ 3.72 µM) and 4 µg/mL (≈ 1.86 µM).
The corresponding values for `NCCCC[C@H](NC(=O)CCN(Cc1ccc(F)cc1)C(=O)[C@H](CCCCN)NC(=O)CCN(Cc1ccc(F)cc1)C(=O)[C@H](CCCCN)NC(=O)CCOCCOCCOCCOCCNC(=O)CCN(Cc1ccc(F)cc1)C(=O)[C@H](CCCCN)NC(=O)CCN(Cc1ccc(F)cc1)C(=O)[C@H](CCCCN)NC(=O)CCN(Cc1ccc(F)cc1)C(=O)[C@@H](N)CCCCN)C(=O)N(CCC(N)=O)Cc1ccc(F)cc1` [Compound 9, H-[X]3-sPEG4-[X]3-NH2] are 9%, 693 µg/mL, 7.1%, 4 to 8 µg/mL and 4 to 8 µg/mL.
On to `NCCCC[C@H](NC(=O)CCN(Cc1ccc(F)cc1)C(=O)[C@H](CCCCN)NC(=O)CCN(Cc1ccc(F)cc1)C(=O)[C@H](CCCCN)NC(=O)COCCN)C(=O)N(CCC(=O)NCCOCC(=O)N[C@@H](CCCCN)C(=O)N(CCC(=O)N[C@@H](CCCCN)C(=O)N(CCC(=O)N[C@@H](CCCCN)C(=O)N(CCC(=O)NCCOCC(N)=O)Cc1ccc(F)cc1)Cc1ccc(F)cc1)Cc1ccc(F)cc1)Cc1ccc(F)cc1` [Compound 11, H-sPEG1-[X]3-sPEG1-[X]3-sPEG1-NH2], for which, in series [3], the hemolysis at 60 min amounted to 4.6%. Also, the “MIC, AB” value in the series with A. baumannii ATCC 19606 was 4 to 8 µg/mL. Further, the “MIC, A. baumannii NMI 3658/17” value in the series with A. baumannii NMI 3658/17 came to 8 µg/mL (≈ 3.7 µM).
Turning to `NCCCC[C@H](NC(=O)CCN(Cc1ccc(F)cc1)C(=O)[C@H](CCCCN)NC(=O)CCN(Cc1ccc(F)cc1)C(=O)[C@H](CCCCN)NC(=O)CCOCCOCCOCCOCCN)C(=O)N(CCC(=O)NCCOCCOCCOCCOCCC(=O)N[C@@H](CCCCN)C(=O)N(CCC(=O)N[C@@H](CCCCN)C(=O)N(CCC(=O)N[C@@H](CCCCN)C(=O)N(CCC(=O)NCCOCCOCCOCCOCCC(N)=O)Cc1ccc(F)cc1)Cc1ccc(F)cc1)Cc1ccc(F)cc1)Cc1ccc(F)cc1` [Compound 14, H-sPEG4-[X]3-sPEG4-[X]3-sPEG4-NH2], the viability at 48 h in series [1] was 44%. Besides, the “HepG2 IC50” value in series [2] was determined as 450 µg/mL. In series [3], this compound had a hemolysis at 60 min of 9%. Also, the “MIC, AB” value with A. baumannii ATCC 19606 is listed as 16 µg/mL (≈ 6.15 µM). Besides, the “MIC, A. baumannii NMI 3658/17” value against A. baumannii NMI 3658/17 turned out to be 32 µg/mL (≈ 12.3 µM).
The corresponding values for `NCCCC[C@H](NC(=O)CCN(Cc1ccc(F)cc1)C(=O)[C@H](CCCCN)NC(=O)CCN(Cc1ccc(F)cc1)C(=O)[C@H](CCCCN)NC(=O)COCCOCCNC(=O)CCN(Cc1ccc(F)cc1)C(=O)[C@H](CCCCN)NC(=O)CCN(Cc1ccc(F)cc1)C(=O)[C@H](CCCCN)NC(=O)CCN(Cc1ccc(F)cc1)C(=O)[C@@H](N)CCCCN)C(=O)N(CCC(N)=O)Cc1ccc(F)cc1` [Compound 7, H-[X]3-sPEG2-[X]3-NH2] are 10%, 619 µg/mL, 6.1%, 4 µg/mL (≈ 1.99 µM) and 4 µg/mL (≈ 1.99 µM).
The corresponding values for `NCCCC[C@H](NC(=O)CCN(Cc1ccc(F)cc1)C(=O)[C@H](CCCCN)NC(=O)CCN(Cc1ccc(F)cc1)C(=O)[C@H](CCCCN)NC(=O)CCN(Cc1ccc(F)cc1)C(=O)[C@H](CCCCN)NC(=O)CCN(Cc1ccc(F)cc1)C(=O)[C@H](CCCCN)NC(=O)CCN(Cc1ccc(F)cc1)C(=O)[C@@H](N)CCCCN)C(=O)N(CCC(N)=O)Cc1ccc(F)cc1` [Compound 1, H-[Lys-βNPhe(4-F)]6-NH2] are 0%, 464 µg/mL, 6.6%, 8 to 16 µg/mL and 4 µg/mL (≈ 2.15 µM).
Regarding `NCCCC[C@H](NC(=O)CCN(Cc1ccc(F)cc1)C(=O)[C@H](CCCCN)NC(=O)CCN(Cc1ccc(F)cc1)C(=O)[C@H](CCCCN)NC(=O)CCOCCOCCOCCOCCOCCOCCNC(=O)CCN(Cc1ccc(F)cc1)C(=O)[C@H](CCCCN)NC(=O)CCN(Cc1ccc(F)cc1)C(=O)[C@H](CCCCN)NC(=O)CCN(Cc1ccc(F)cc1)C(=O)[C@@H](N)CCCCN)C(=O)N(CCC(N)=O)Cc1ccc(F)cc1` [Compound 10, H-[X]3-sPEG6-[X]3-NH2], the viability at 48 h in series [1] came to 27%. Also, the “HepG2 IC50” value in series [2] was determined as 800 µg/mL. In series [3], the hemolysis at 60 min stood at 6.3%. Moreover, in the series with A. baumannii ATCC 19606, the “MIC against A. baumannii” value was 1.3 µM (≈ 2.86 µg/mL) and the “MIC, AB” value is on record as 4 µg/mL (≈ 1.82 µM). Besides, the “MIC, A. baumannii NMI 3658/17” value against A. baumannii NMI 3658/17 is 4 µg/mL (≈ 1.82 µM).
`NCCCC[C@H](NC(=O)CCN(Cc1ccc(F)cc1)C(=O)[C@H](CCCCN)NC(=O)CCN(Cc1ccc(F)cc1)C(=O)[C@H](CCCCN)NC(=O)COCCOCCOCCN)C(=O)N(CCC(=O)NCCOCCOCCOCC(=O)N[C@@H](CCCCN)C(=O)N(CCC(=O)N[C@@H](CCCCN)C(=O)N(CCC(=O)N[C@@H](CCCCN)C(=O)N(CCC(=O)NCCOCCOCCOCC(N)=O)Cc1ccc(F)cc1)Cc1ccc(F)cc1)Cc1ccc(F)cc1)Cc1ccc(F)cc1` [Compound 13, H-sPEG3-[X]3-sPEG3-[X]3-sPEG3-NH2] displayed a hemolysis at 60 min in series [3] of 7.8%. Moreover, the “MIC, AB” value in the series on A. baumannii ATCC 19606 lay in the range of 8 to 16 µg/mL. Moreover, the “MIC, A. baumannii NMI 3658/17” value against A. baumannii NMI 3658/17 is recorded as 16 µg/mL (≈ 6.59 µM).
Consider `NCCCC[C@H](NC(=O)CCN(Cc1ccc(F)cc1)C(=O)[C@H](CCCCN)NC(=O)CCN(Cc1ccc(F)cc1)C(=O)[C@H](CCCCN)NC(=O)COCCOCCN)C(=O)N(CCC(=O)NCCOCCOCC(=O)N[C@@H](CCCCN)C(=O)N(CCC(=O)N[C@@H](CCCCN)C(=O)N(CCC(=O)N[C@@H](CCCCN)C(=O)N(CCC(=O)NCCOCCOCC(N)=O)Cc1ccc(F)cc1)Cc1ccc(F)cc1)Cc1ccc(F)cc1)Cc1ccc(F)cc1` [Compound 12, H-sPEG2-[X]3-sPEG2-[X]3-sPEG2-NH2], for which the viability at 48 h in series [1] worked out at 34%. Also, in series [2], the “HepG2 IC50” value amounted to 332 µg/mL. The hemolysis at 60 min in series [3] stood at 8.1%. Moreover, the “MIC, AB” value with A. baumannii ATCC 19606 lay within 8 to 16 µg/mL. Moreover, the “MIC, A. baumannii NMI 3658/17” value in the series with A. baumannii NMI 3658/17 turned out to be 16 µg/mL (≈ 6.97 µM).
